This note sets out measurements from patent publication US20230270805A1, “A COMPOSITION COMPRISING AN EXTRACT OF ALDER TREE OR THE ISOLATED COMPOUNDS THEREFROM FOR TREATING AND PREVENTING SKELETON MUSCLE-RELATED DISORDER AND THE USE THEREOF” (Sookmyung Women's University Indusutry-Academic Cooperation …, priority 2020, published 2023).

Molecules are shown by their SMILES.

Holding throughout (type): in vivo, mouse
Data set [1] in a line: Body weight in dexamethasone animal model of muscle loss. Particulars: Dexa + oxymetholone 10 mg/kg oral daily. How it is done:
(§1) Dexamethasone, a synthetic glucocorticoid, was injected subcutaneously into C57/BL6 mouse mice to establish an animal model of muscle loss and following experiment was performed.
(§2) To establish an in vivo model of muscle loss, 6 weeks-old male C57/BL6 mice (Raon Bio, 6 weeks old, weight range: 32-36 g) were acclimated for one-week, and then weighed animals determined to be healthy during the acclimatization period. The mice close to the average weight were selected using a simple random sampling method and were classified into five groups, namely, (a) a control group, (b) a muscle loss control group (treated with dexamethasone 1 mg/kg), (c) test sample group treated with inventive extract 250 mg/kg and dexamethasone, (d) test sample group treated with inventive extract 500 mg/kg and dexamethasone, and (e) positive control treated with oxymetholone (Celltrion Co. Ltd, ATC #A14AA05, 10 mg/kg) and dexamethasone.
(§3) The inventive Extract and oxymetholone were administered once to the mice daily for 4 weeks and dexamethasone was injected subcutaneously for 10 days from 10 days before the end of co-treatment of inventive extract and oxymetholone.
(§4) Both of inventive extract and oxymetholone were forcibly administered orally using zonde for oral administration after holding and fixing the skin of the animal's poll area, and dexamethasone was injected slowly subcutaneously after inserting a syringe into the dorsal skin fold of the animal held on the thumb and index finger, slightly aspirating whether it was injected normally, and confirming that no blood came out.
The body weight of every animal was measured once a week for 4 weeks from the day of inventive extract administration.

The test system of data set [2] is C57/BL6 mice. The data set can be described thus: Weight of muscle mass, epididymal fat and liver in dexamethasone animal model of muscle loss. Conditions: Dexa + oxymetholone 10 mg/kg oral daily, autopsy at 4 weeks. How it is done:
as §1, §2, §3, §4
The mice were anesthetized with anesthetic to prevent the movement of experimental animals and sacrificed to minimize pain to dissect them. All instruments used during the experiment were sterilized and disinfected and their liver and epididymis fat were harvested.
The gastrocnemius muscle and soleus muscle of the mice were separated, washed in saline, drained, and weighed.
After autopsy at 4 weeks after administration, the weight of liver and Epididymis fat was weighed to calculate weight-to-weight to compare the relative differences between the organ's weight in the groups.

In data set [3] the test system is C57/BL6 mice. Briefly: Grip strength test in dexamethasone animal model of muscle loss. Particulars: Dexa + oxymetholone 10 mg/kg oral daily. How it is done: as §1, §2, §3, §4
The grip strength of mice was determined as follows; after grabbing the animal's tail and placing it on the grid, the front foot and body were pulled at the same speed until the front foot and body were held at the grid with the front paw, and the average value was calculated after three experimental repetitions. The determination was performed on the 14th and 28th days after the administration of test sample.

In data set [4] the test system is C57/BL6 mice. The data set can be described thus: Treadmill test in dexamethasone animal model of muscle loss. Conditions: Dexa + oxymetholone 10 mg/kg oral daily. How it is done: as §1, §2, §3, §4
The determination was performed on the 14th and 28th days after the administration of test sample.

`C[C@]12C/C(=C/O)C(=O)C[C@@H]1CC[C@@H]1[C@@H]2CC[C@@]2(C)[C@H]1CC[C@]2(C)O` [Oxy, oxymetholone]: the body weight in data set [1] (0 week) is on record as 22.26 ± 0.71 gram; in data set [1] (1 week), 22.49 ± 0.72 gram; in data set [1] (2 weeks), 23.25 ± 0.90 gram; in data set [1] (3 weeks), 23.22 ± 0.93 gram; in data set [1] (4 weeks) it was 23.20 ± 0.78^b gram. In addition, the “absolute weight, epididymal fat” value with C57/BL6 mice [2] is 0.43 ± 0.09^# gram. For the same compound, in the data set with C57/BL6 mice [2], the “absolute weight, liver” value is listed as 1.16 ± 0.07 gram. Besides, the “absolute weight, calf muscle” value with C57/BL6 mice [2] (gastrocnemius) turned out to be 0.251 ± 0.016 gram. Also, the “absolute weight, fluke muscle” value in the data set on C57/BL6 mice [2] (soleus) was 0.023 ± 0.002^d gram. The grip strength is 1.00 ± 0.06 N with C57/BL6 mice [3] (2 weeks) and 1.25 ± 0.16^a N with C57/BL6 mice [3] (4 weeks). For the same compound, the “motility (treadmill)” value in the data set with C57/BL6 mice [4] (2 weeks) is reported as 774.75 ± 66.11 meter; with C57/BL6 mice [4] (4 weeks) it was 773.93 ± 39.64 meter.
